The record followed here is PMC9684079, “Pharmacological targeting of glutamatergic neurons within the brainstem for weight reduction” (Nature Metabolism, 2022).

The structures appear in SMILES notation.

Common to all, as to assay: biochemical
Common to all, as to design: Cerep/Eurofins selectivity panel, enzymes, per cent inhibition at 10 uM
Holding throughout (conditions): read-out: % Inhibition

Test [1] addresses T1, Carbonic Anhydrase II (Homo sapiens, UniProt P00918).
T1 construct: gene CA2

For test [2], the target named is T2, Cyclooxygenase COX-1 (Homo sapiens, UniProt P23219).
T2 construct: gene PTGS1

The target of test [3] is T3, Cyclooxygenase COX-2 (Homo sapiens, UniProt P35354).
T3 construct: gene PTGS2
T3 sequence (P35354 whole entry): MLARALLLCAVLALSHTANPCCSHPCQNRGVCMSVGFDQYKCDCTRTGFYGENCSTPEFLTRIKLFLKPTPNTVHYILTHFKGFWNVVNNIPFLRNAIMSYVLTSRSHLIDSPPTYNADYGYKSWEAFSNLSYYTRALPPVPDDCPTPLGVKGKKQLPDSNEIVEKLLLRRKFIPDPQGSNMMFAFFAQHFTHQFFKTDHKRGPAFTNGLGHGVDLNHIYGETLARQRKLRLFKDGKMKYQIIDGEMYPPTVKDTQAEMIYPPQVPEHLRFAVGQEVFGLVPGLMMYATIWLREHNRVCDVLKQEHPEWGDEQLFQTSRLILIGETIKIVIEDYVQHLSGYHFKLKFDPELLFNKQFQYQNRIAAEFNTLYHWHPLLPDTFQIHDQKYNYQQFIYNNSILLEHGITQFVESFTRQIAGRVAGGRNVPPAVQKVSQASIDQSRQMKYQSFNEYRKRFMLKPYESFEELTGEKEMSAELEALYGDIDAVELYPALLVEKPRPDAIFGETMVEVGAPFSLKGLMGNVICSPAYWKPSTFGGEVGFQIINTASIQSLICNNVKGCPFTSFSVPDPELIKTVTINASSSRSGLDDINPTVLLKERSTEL

Test [4] deals with T4, HMG-CoA Reductase (Homo sapiens, UniProt P04035).
T4 construct: gene HMGCR

Test [5] concerns the target T5, Monoamine Oxidase MAO-A (Homo sapiens, UniProt P21397).
T5 construct: gene MAOA

In test [6] the target is T6, Monoamine Oxidase MAO-B (Homo sapiens, UniProt P27338).
T6 construct: gene MAOB
T6 sequence (P27338 whole entry): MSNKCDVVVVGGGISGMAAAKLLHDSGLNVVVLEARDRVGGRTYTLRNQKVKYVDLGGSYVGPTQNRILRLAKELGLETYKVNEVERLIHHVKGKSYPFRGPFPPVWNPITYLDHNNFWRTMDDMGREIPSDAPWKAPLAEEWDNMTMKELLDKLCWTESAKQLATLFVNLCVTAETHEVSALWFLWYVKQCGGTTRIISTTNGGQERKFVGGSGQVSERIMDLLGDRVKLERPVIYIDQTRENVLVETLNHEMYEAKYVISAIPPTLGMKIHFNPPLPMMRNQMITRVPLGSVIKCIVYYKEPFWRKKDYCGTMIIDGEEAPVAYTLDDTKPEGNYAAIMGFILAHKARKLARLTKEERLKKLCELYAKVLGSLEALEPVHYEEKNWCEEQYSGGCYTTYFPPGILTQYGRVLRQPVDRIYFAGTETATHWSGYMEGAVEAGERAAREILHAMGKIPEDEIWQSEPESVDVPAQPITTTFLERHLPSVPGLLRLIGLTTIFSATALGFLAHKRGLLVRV

In test [7] the target is T7, Peptidase, Matrix metalloprotease-13 (MMP-13) (Homo sapiens, UniProt P45452).
T7 construct: gene MMP13

Test [8] concerns the target T8, Phosphodiesterase PDE10A2 (Homo sapiens, UniProt Q9Y233).
T8 construct: gene PDE10A; isoform PDE10A2

The target of test [9] is T9, Phosphodiesterase PDE5 (Homo sapiens, UniProt O76074).
T9 construct: gene PDE5A

Test [10] concerns the target Protein Serine/Threonine Kinase, MAPK14 (p38a) (Homo sapiens, UniProt Q16539).
Test [11] addresses Protein Serine/Threonine Kinase, MAPK3 (ERK1) (Homo sapiens, UniProt P27361).
In test [12] the target is Protein Serine/Threonine Kinase, MAPK8 (JNK1) (Homo sapiens, UniProt P45983).
Protein Serine/Threonine Kinase, MAPK8 (JNK1), sequence (P45983 whole entry): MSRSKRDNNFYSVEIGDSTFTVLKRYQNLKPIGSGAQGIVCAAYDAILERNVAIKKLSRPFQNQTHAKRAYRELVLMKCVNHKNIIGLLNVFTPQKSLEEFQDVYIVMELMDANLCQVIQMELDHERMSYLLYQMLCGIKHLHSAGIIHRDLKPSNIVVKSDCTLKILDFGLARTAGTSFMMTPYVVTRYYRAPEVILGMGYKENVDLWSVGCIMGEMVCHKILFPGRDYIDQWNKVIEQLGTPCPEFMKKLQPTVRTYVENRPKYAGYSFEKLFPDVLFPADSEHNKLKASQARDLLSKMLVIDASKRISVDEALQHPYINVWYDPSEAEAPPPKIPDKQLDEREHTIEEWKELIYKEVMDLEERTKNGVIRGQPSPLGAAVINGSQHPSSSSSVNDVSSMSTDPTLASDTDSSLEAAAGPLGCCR
The target of test [13] is Protein Tyrosine Kinase, ERBB2 (HER2) (Homo sapiens, UniProt P04626).
The target of test [14] is Protein Tyrosine Kinase, FES (Homo sapiens, UniProt P07332).
Protein Tyrosine Kinase, FES, sequence (P07332 whole entry): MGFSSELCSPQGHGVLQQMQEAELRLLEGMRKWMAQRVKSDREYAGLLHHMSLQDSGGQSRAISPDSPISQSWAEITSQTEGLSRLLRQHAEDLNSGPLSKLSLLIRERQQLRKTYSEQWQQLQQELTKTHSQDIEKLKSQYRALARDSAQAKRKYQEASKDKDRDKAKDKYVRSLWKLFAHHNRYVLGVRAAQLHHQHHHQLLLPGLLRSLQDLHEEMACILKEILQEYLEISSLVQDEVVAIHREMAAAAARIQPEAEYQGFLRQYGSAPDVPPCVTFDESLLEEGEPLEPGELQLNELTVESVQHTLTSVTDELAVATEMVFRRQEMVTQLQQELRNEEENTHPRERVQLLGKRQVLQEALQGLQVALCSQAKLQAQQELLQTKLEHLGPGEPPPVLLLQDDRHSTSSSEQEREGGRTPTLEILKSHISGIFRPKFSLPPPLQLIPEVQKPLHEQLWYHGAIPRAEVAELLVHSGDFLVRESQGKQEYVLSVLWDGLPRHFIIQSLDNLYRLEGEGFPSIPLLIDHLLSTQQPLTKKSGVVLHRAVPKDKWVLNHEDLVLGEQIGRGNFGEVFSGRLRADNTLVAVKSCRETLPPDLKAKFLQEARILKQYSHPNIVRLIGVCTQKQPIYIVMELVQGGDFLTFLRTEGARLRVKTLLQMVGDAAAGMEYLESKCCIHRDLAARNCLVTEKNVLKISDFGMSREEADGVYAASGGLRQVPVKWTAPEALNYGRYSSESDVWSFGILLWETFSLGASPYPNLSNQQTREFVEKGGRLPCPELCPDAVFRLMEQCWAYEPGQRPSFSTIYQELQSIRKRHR
Test [15] concerns the target Protein Tyrosine Kinase, SRC (Homo sapiens, UniProt P12931).
For test [16], the target named is Protein Serine/Threonine Kinase, CDC2/CCNB1 (CDK1/cyclinB) (Homo sapiens, UniProt P06493).
The target in test [17] is T10, Xanthine Oxidase (Bos taurus, UniProt P80457).
T10 construct: gene XDH
T10 sequence (P80457 whole entry): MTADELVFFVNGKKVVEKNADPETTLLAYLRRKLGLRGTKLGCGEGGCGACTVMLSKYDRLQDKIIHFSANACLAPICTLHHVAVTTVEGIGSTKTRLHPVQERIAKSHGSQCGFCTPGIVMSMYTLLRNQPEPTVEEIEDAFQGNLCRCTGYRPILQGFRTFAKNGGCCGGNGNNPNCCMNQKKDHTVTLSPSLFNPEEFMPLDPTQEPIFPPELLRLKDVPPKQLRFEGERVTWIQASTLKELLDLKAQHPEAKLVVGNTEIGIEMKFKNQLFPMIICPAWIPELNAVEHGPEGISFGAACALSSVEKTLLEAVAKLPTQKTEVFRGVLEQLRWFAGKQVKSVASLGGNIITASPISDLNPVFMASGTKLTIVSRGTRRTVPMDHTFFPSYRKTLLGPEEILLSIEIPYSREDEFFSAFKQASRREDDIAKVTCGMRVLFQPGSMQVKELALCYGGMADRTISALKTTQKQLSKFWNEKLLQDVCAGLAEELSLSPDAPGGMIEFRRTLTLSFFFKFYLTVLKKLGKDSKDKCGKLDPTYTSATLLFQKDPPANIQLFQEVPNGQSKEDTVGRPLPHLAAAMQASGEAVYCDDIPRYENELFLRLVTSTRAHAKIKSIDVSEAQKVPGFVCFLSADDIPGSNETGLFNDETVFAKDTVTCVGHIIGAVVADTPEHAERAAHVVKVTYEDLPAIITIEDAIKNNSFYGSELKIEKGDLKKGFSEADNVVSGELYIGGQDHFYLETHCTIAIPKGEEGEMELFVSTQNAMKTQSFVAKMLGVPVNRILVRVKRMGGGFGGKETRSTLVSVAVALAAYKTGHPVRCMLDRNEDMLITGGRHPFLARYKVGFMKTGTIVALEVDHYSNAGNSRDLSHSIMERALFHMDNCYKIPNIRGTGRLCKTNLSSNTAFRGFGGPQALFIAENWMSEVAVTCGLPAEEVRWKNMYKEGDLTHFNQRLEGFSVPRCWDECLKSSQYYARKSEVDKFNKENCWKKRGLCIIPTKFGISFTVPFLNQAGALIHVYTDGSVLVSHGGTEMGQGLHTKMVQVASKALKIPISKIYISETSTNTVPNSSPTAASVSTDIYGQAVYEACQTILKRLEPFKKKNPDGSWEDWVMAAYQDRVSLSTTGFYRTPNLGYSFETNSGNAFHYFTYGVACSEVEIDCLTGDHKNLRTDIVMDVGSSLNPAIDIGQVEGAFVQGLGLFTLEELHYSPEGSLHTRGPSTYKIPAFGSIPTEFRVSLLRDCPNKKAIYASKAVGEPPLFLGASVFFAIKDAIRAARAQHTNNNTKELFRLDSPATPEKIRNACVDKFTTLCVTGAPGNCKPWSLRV

Test [18] deals with T11, Phospholipase PLA2-I (Sus scrofa, UniProt P00592).
T11 construct: gene PLA2G1B
T11 sequence (P00592 whole entry): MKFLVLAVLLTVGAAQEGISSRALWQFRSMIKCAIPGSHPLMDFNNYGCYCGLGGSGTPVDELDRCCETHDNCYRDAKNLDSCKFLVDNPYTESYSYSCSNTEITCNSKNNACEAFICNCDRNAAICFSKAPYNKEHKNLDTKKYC

Test [19] concerns the target T12, Peptidase, Tumor necrosis factorα Converting enzyme (TACE) (Homo sapiens, UniProt P78536).
T12 construct: gene ADAM17

Protein Serine/Threonine Kinase, MAPK14 (p38a), sequence (Q16539 whole entry): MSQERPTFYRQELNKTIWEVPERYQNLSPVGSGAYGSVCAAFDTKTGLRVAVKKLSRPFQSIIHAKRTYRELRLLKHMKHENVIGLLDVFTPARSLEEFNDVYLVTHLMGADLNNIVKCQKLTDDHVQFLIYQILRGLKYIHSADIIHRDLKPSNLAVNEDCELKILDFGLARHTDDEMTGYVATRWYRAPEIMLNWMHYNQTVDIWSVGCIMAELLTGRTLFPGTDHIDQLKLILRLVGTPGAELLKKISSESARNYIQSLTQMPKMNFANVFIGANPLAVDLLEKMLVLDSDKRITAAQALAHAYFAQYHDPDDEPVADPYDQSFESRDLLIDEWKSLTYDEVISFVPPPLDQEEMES
Protein Serine/Threonine Kinase, MAPK3 (ERK1), sequence (P27361 whole entry): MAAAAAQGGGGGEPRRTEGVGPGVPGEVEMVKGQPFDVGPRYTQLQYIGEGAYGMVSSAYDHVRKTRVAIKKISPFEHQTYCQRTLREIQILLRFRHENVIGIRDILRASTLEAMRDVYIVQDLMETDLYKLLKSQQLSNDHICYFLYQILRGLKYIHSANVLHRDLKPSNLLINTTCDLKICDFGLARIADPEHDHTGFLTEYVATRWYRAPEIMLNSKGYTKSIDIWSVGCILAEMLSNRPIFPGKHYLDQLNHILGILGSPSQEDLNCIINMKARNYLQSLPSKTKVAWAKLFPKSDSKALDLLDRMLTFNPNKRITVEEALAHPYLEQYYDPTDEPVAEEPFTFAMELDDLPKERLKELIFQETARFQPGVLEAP

What is called inhibition is the change of the read-out against control, counted positive when it falls. As to `C[C@]1(Nc2cnc(C(F)(F)F)cn2)CCC[C@@H]1NC(=O)c1ncccc1-n1nccn1` [CVN45502], the inhibition at 10 µM in test [1] is -4%; in [2], 5%; in test [3], -13%; in test [4] it was -4%; in test [5], 11%; in test [6] it was 8%. The inhibition at 10 µM in [7] is -4%; in [8], 35%; in test [9], 29%; in [10] it was -1%; in [11] it was 8%; in test [12], 6%. Further, the inhibition at 10 µM in [13] is 0%; in [14] it was -13%; in test [15] it was -7%; in test [16], 14%; in test [17] it was 16%; in test [18] it was 10%. Moreover, the inhibition at 10 µM in test [19] amounted to 2%.
